Laboratory results as given in PMC8187626, “Clostridioides difficile specific DNA adenine methyltransferase CamA squeezes and flips adenine out of DNA helix” (Nature Communications, 2021).

T1: CamA (Clostridioides difficile 630, UniProt Q183J3 1-577)
T1 sequence: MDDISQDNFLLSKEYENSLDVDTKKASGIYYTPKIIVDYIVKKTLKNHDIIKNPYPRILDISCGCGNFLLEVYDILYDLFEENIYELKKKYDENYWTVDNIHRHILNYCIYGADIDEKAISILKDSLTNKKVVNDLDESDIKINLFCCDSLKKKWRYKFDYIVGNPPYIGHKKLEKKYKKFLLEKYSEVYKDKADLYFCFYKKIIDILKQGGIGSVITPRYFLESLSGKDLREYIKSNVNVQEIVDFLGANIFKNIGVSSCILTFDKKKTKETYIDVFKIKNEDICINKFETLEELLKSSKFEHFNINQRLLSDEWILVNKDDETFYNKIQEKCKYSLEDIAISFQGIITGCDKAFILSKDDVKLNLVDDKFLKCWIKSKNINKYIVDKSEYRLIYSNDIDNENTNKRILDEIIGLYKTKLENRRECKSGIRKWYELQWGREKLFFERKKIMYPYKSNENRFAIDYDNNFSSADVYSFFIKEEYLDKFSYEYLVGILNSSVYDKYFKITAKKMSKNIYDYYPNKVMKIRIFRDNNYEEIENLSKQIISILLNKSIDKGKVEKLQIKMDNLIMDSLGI

T2: CamA SeMet (Clostridioides difficile 630, UniProt Q183J3 1-577)
T2 sequence: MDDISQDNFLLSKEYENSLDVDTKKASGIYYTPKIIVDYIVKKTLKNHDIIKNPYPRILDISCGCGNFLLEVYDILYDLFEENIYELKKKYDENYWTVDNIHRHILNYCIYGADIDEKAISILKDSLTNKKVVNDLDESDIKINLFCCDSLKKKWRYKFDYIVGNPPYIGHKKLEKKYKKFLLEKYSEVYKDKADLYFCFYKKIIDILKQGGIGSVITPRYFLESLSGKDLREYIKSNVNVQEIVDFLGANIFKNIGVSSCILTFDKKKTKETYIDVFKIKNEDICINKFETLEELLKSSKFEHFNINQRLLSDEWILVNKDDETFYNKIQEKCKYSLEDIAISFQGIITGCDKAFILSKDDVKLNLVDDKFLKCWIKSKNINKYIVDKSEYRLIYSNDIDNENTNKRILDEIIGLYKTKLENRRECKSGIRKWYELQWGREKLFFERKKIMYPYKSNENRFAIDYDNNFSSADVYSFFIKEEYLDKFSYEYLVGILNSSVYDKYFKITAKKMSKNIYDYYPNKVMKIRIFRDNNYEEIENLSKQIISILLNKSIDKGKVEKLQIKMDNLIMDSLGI


Legend:
CamA [1] = target: T3, CamA (Clostridioides difficile, UniProt Q183J3); test: isothermal titration calorimetry, one-site fit; type: binding
T3 construct: gene CD630_27580; full length, 577 residues; N-terminal His-SUMO tag cut by ULP protease leaving His-Met; E. coli Rosetta, plasmid pXC2184; active as monomer

CamA [2] = target: T3, CamA; test: MTase-Glo luminescence assay of SAH formation; type: biochemical; settings: 20 µM dsDNA substrate (CAAAAA site), 50 nM CamA, 100 mM NaCl, 20 mM Tris-HCl pH 7.5, ~22 °C, 2.5 min
CamA [3] = target: T1, CamA; test: X-ray crystallography; no cofactor bound (SAH dissociated); 2.68 A; ITC at 25 C: 200 uM DNA into 18-20 uM CamA, 20 mM HEPES pH 8.0, 0.5 mM TCEP, 5% glycerol, 150 or 250 mM NaCl (cofactor comparison at 250 mM NaCl); settings: protein: recombinant; tags: His-SUMO cleaved, leaves N-terminal His-Met; 5' overhang 1 nt at each end (T / A)
CamA SeMet = target: T2, CamA SeMet; test: X-ray crystallography; no cofactor; ITC at 25 C: 200 uM DNA into 18-20 uM CamA, 20 mM HEPES pH 8.0, 0.5 mM TCEP, 5% glycerol, 150 or 250 mM NaCl (cofactor comparison at 250 mM NaCl); settings: protein: recombinant; tags: His-SUMO cleaved, leaves N-terminal His-Met; 5' overhang 1 nt at each end (T / A)

| Molecule | Kd (CamA [1]) [µM] | Km (CamA [2]) [µM] | binding result (CamA [3]) | binding result (CamA SeMet) |
| --- | --- | --- | --- | --- |
| Nc1ncnc2c1ncn2[C@@H]1O[C@H](CSCC[C@H](N)C(=O)O)[C@@H](O)[C@H]1O [SAH] | 8 |  |  |  |
| C[S+](CC[C@H](N)C(=O)O)C[C@H]1O[C@@H](n2cnc3c(N)ncnc32)[C@H](O)[C@@H]1O (stereo partly drawn) [SAM] | 23 to 35 | > 17 |  |  |
| Nc1ncnc2c1ncn2[C@@H]1O[C@H](C[C@@H](N)CC[C@H](N)C(=O)O)[C@@H](O)[C@H]1O [sinefungin] | 19 |  |  |  |
| co-crystal DNA 13 bp + overhangs (dsDNA) DNA 1: TTCAAAAAGTCCCA DNA 2: ATGGGACTTTTTGA |  |  | binds | binds |
